Literature values in patent publication US10918627B2, “Convergent and enantioselective total synthesis of Communesin analogs” (Massachusetts Institute of Technology, priority 2016, dated 2021).
Converted amounts (≈) assume the structure as drawn.

Columns and labels:
[1] = test system: brine shrimp Artemia salina; conditions: Jadulco 2004
[2] = test system: human leukemia cell lines; conditions: array of human leukemia cell lines; Jadulco 2004
[3] = test system: bradycardia caused by astemidazole; conditions: at different concentrations, Fan 2015
[4] = test system: third instar larvae of silkworms; conditions: Hayashi 2004
[5] = test system: mouse P-388 lymphocytic leukemia cells; conditions: cultured mouse P-388 lymphocytic leukemia cells; Numata 1993
[6] = Fan 2015
cardiovascular vessels = conditions: Fan 2015

| Molecule | LD50 toxicity [1] [µg/mL] | anti-proliferative activity [2] | mitigative effect on bradycardia [3] | insecticidal activity (comparative, in words) [4] | LD50 insecticidal ([4]; oral administration) | ED50 cytotoxicity [5] [µg/mL] | vasculogenetic activity [6] | promotion of the function of cardiovascular vessels (cardiovascular vessels) |
| --- | --- | --- | --- | --- | --- | --- | --- | --- |
| C/C=C/C=C/C(=O)N1CC[C@@]23c4ccccc4N[C@@H]4N(C)c5cccc6c5[C@@]42CCN([C@@H]13)[C@@H]6[C@H]1OC1(C)C [Compound 4, Communesin B] | 0.30 | moderate anti-proliferative activity | significant mitigative effect | most active | 5 μg/g of diet | 0.45 (≈ 0.885 µM) | – | – |
| C/C=C/C=C/C(=O)N1CC[C@@]23c4ccccc4N[C@@H]4N(C=O)c5cccc6c5[C@@]42CCN([C@@H]13)[C@@H]6[C@H]1OC1(C)C [Compound 6, communesin D] | 0.57 | moderate anti-proliferative activity | – | lower insecticidal activities | – | – | – | – |
| CCC[C@H](O)CC(=O)N1CC[C@@]23c4ccccc4N[C@@H]4N(C)c5cccc6c5[C@@]42CCN([C@@H]13)[C@@H]6[C@H]1OC1(C)C [Compound 9, communesin I] | – | – | significant mitigative effect | – | – | – | moderate vasculogenetic activity | moderately promote |
| C/C=C/C=C/C(=O)N1CC[C@@]23c4ccccc4N[C@@H]4Nc5cccc6c5[C@@]42CCN([C@@H]13)[C@@H]6[C@H]1OC1(C)C [Compound 5, communesin C] | 1.96 | moderate anti-proliferative activity | – | – | – | – | – | – |
| CC(=O)N1CC[C@@]23c4ccccc4N[C@@H]4N(C)c5cccc6c5[C@@]42CCN([C@@H]13)[C@@H]6[C@H]1OC1(C)C [Compound 2, Communesin A] | – | – | significant mitigative effect | lower insecticidal activities | – | 3.5 (≈ 7.67 µM) | moderate vasculogenetic activity | moderately promote |
| Communesin E [Compound 3] | – | – | – | lower insecticidal activities | – | – | – | – |
| CC(=O)N1CC[C@@]23c4ccccc4N[C@@H]4N(C)c5cccc6c5[C@@]42CCN([C@@H]6C=C(C)C)[C@@H]13 [Compound 1, (−)-Communesin F] | – | – | – | lower insecticidal activities | – | – | – | – |
